From paper PMC12367838, “Relevance of kinetic interactions and co-formulants for plant protection product liver toxicity in vitro” (Archives of Toxicology, 2025)

Test system: HepaRG cells
Test: Neutral red uptake (NRU) cytotoxicity assay
Type: cell-based, human
Conditions: 72 h, tested concentration range
Experimental: Wild-type human hepatoma HepaRG cells obtained from Biopredic International (Saint Grégoire, France) were cultivated for 4 weeks in a Binder cell culture incubator maintained at 37 °C in a 5% humidified atmosphere with 5% CO2 before they were employed in this study. The 4 weeks consisted of 2 weeks of proliferation and 2 weeks of differentiation. […]
Cytotoxicity assays were performed in 96-well plates at a density of 9000 cells per well, and test compounds were incubated for 72 h. […] After the 30-min incubation with WST-1, absorbance was measured at 450 nm corrected by a reference at 620 nm (λexc = 450 nm/λemi = 620 nm) using an Infinite M200 PRO plate reader (Tecan; Männedorf, Switzerland). […] The absorbed dye was quantified by fluorescence measurement (λexc = 530 nm/λemi = 645 nm) on an Infinite M200 PRO plate reader (Tecan; Männedorf, Switzerland). Background corrected viability values of both assays were expressed as a percentage of untreated cells. […] Means and standard deviations for each treatment were calculated. […]

C#CCOc1ccc(CCNC(=O)C(OCC#C)c2ccc(Cl)cc2)cc1OC (stereo not shown) [MDP, mandipropamid]
cytotoxicity: not cytotoxic in the tested concentration range
